Results: patent US8815857B2 (Boehringer Ingelheim International GmbH, priority 2011, dated 2014)
Values after ≈ are worked out from the molar mass of the structure shown.

Columns and labels:
[1] = Assessment of solubility: HT solubility in pION buffer, UV spectrophotometry; details: for solubility: kinetic from dmso stock
[2] = target: T1, Recombinant human soluble guanylate cyclase (sGC), alpha 1 / beta 1 subunits, heme-free (Homo sapiens, UniProt Q02108+Q02153); assay: Molecular assay: cGMP formation by heme-free recombinant sGC (CisBio cGMP detection kit); type: biochemical; details: 300 pM heme-free sGC, 37° C., 60 min, cGMP readout; read-out: EC50 nM, Activity of Compounds in Molecular Assay
T1 construct: histidine tag (C); made in house; host or cells: Sf9 insect cells (baculovirus coinfection)
T1 sequence (Q02108 1-690 partner): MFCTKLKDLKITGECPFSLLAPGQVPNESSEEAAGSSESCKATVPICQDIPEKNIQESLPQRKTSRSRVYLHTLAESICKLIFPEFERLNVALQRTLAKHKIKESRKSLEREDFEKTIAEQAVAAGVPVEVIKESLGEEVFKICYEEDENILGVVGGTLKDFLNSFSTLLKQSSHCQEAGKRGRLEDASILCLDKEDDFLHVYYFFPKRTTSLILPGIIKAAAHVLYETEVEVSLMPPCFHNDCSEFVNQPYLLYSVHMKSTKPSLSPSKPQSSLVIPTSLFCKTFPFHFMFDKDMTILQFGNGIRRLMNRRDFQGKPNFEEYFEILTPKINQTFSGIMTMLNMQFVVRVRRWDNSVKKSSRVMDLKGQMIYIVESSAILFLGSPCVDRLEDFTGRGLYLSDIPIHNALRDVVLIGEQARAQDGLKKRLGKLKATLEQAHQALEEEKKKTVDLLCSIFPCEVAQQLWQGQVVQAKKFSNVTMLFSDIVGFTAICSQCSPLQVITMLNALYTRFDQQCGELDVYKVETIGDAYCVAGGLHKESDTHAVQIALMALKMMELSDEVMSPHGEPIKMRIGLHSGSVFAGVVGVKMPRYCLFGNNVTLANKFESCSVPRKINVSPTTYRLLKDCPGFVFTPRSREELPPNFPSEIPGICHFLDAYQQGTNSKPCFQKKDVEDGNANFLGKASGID
T1 sequence (Q02153 1-619): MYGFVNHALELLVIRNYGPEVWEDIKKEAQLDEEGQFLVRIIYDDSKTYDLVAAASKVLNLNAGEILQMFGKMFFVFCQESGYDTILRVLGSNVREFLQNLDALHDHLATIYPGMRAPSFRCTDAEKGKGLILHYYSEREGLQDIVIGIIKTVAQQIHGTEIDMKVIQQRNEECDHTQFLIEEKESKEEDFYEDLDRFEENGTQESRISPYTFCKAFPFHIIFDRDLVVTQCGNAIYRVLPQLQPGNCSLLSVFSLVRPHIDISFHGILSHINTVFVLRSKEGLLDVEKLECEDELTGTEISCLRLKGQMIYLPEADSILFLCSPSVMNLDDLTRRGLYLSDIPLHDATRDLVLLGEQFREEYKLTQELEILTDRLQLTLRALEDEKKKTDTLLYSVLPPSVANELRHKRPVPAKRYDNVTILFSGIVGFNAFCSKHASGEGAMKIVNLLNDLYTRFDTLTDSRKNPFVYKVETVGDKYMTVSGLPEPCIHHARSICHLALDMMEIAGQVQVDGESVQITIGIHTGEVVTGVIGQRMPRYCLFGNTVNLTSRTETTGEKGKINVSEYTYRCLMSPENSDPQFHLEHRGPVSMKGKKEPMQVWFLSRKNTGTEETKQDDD
Experimental: Recombinant human soluble guanylate cyclase (sGC) is purified from Sf9 insect cells coinfected with baculoviruses expressing the alpha 1 or beta 1 subunit of sGC, both with a C-terminal histidine tag. Heme-free sGC is prepared by treating cell lysate with a final concentration of 0.5% Tween 20 prior to purification on a nickel affinity column.
sGC catalyzes the conversion of guanosine-5′-triphosphate (GTP) to cyclic guanosine monophosphate (cGMP). The activity of sGC is measured in vitro using the commercially available CisBio cGMP detection kit (catalog # 62GM2PEB) in a 384 well format. In brief, 300 pM heme-free sGC is incubated in reaction buffer (50 mM MOPS pH 6.8, 0.2 N KOH, 50 mM NaCl, 2 mM MgCl2, 0.1% BSA, 1.25 mM IBMX, 0.25 mM TCEP, 50 nM GTP) in the presence or absence of dilutions of test compounds diluted in DMSO (final concentration of 1%) in a volume of 10 microL at 37° C. for 60 min. Undiluted reaction products or an 80-fold dilution of reaction products (10 microL of either) prepared in reaction buffer containing 0.2 mM TCEP and 10 mM EDTA is mixed with 5 microL of d2-cGMP plus 5 microL of Eu^3+ cryptate-labeled anti-cGMP, each diluted in buffer containing 0.1 M KPO4 pH 7.5, 0.4 M KF, 20 mM EDTA, 0.2% BSA. After a one h incubation at room temperature in the dark, the mixtures are quantified on an EnVision plate reader (PerkinElmer) according to manufacturer instructions (laser excitation 337 nm, emission 620 and 665 nm). The ratio at each compound concentration is converted to nM cGMP using the linear portion of a calibration curve. Log compound concentration is plotted against combined undiluted and diluted nM cGMP values to determine the EC50 for each curve.

[3] = pION system solution buffer, pH 7.4, pH 7.4, aqueous buffer, Solubility (pH 7.4), pH 7.4 buffer, 16-19 h incubation, 1.0% DMSO
[4] = pION system solution buffer, pH 4.5, pH 4.5, aqueous buffer, Solubility (pH 4.5), pH 4.5 buffer, 16-19 h incubation, 1.0% DMSO

SMILES	solubility [1, 3]	solubility [1, 4]	EC50 [2]	other results
Cc1ccc(OCc2ccc(C(=O)N3CCCC3)cc2C)c(-c2csc(N3CCC(C(=O)O)CC3)n2)c1 [Compound 7]	0.042 mg/mL (≈ 80.8 µM)	–	–	Solubility (pH 4.5) ([1]; pH 4.5 buffer, 16-19 h incubation, 1.0% DMSO): >62 μg/mL
Cc1cc(CN2CCCCC2)ccc1COc1c(C)cccc1-c1csc(N2CCC(C(=O)O)CC2)n1 [Compound 16]	0.033 mg/mL (≈ 63.5 µM)	> 0.051 mg/mL	–	–
Cc1ccc(OCc2ccc(CN3CCCCC3)cc2C)c(-c2csc(N3CCC(C(=O)O)CC3)n2)c1 [Compound 18]	> 0.063 mg/mL	> 0.063 mg/mL	–	–
Cc1ccc(OCc2ccc(CN3CCOCC3)cc2C)c(-c2csc(N3CCC[C@@H](C(=O)O)C3)n2)c1 [Compound 19]	> 0.052 mg/mL	> 0.052 mg/mL	–	–
COCCN(C)Cc1ccc(COc2ccc(C)cc2-c2csc(N3CCC(C(=O)O)CC3)n2)c(C)c1 [Compound 27]	> 0.063 mg/mL	> 0.063 mg/mL	–	–
Cc1cc(CN2CCC(C(N)=O)CC2)ccc1COc1c(C)cccc1-c1csc(N2CCC(C(=O)O)CC2)n1 [Compound 93]	> 0.056 mg/mL	> 0.056 mg/mL	–	–
Cc1cc(CN2CCS(=O)(=O)CC2)ccc1COc1ccc(C#N)cc1-c1csc(N2CC3C(C2)C3C(=O)O)n1 (stereo not shown) [Compound 116]	–	–	1100 nM	–
Cc1cc(CN2CCS(=O)(=O)CC2)ccc1COc1ccccc1-c1csc(N2CC3CCC(C2)C3C(=O)O)n1 (stereo not shown) [Compound 120]	–	–	18 nM	–
Cc1ccc(OCc2ccc(CN3CCS(=O)(=O)CC3)cc2C)c(-c2csc(N3CCC(C(=O)O)CC3C)n2)c1 (stereo not shown) [Compound 124]	–	–	30 nM	–
Cc1cc(CN2CCS(=O)(=O)CC2)ccc1COc1ccc(Cl)cc1-c1csc(N2CC3C(C2)C3C(=O)O)n1 (stereo not shown) [Compound 128]	> 0.058 mg/mL	0.00045 mg/mL (≈ 0.765 µM)	–	–
Cc1cc(CN2CCS(=O)(=O)CC2)ccc1COc1ccc(Cl)cc1-c1csc(N2CCC(C(=O)O)C(C)C2)n1 (stereo not shown) [Compound 144]	–	–	54 nM	–
Cc1cc(CN2CCS(=O)(=O)CC2)ccc1COc1ccc(F)cc1-c1csc(N2CCC(C(=O)O)C(C(F)(F)F)C2)n1 (stereo not shown) [Compound 155]	> 0.063 mg/mL	0.0003 mg/mL (≈ 0.468 µM)	–	–
COCCCNC(=O)c1ccc(COc2ccc(C)cc2-c2csc(N3CCC(C(=O)O)CC3)n2)c(C)c1 [Compound 159]	–	–	1900 nM	–
Cc1ccc(OCc2ccc(C(=O)N(C)CCN(C)C)cc2C)c(-c2csc(N3CCC(C(=O)O)CC3)n2)c1 [Compound 160]	–	–	2800 nM	–
Cc1ccc(OCc2ccc(C(=O)N(C)CC3CCCCC3)cc2C)c(-c2csc(N3CCC(C(=O)O)CC3)n2)c1 [Compound 161]	–	–	91 nM	–
COCCCN(C)C(=O)c1ccc(COc2ccc(C)cc2-c2csc(N3CCC(C(=O)O)CC3)n2)c(C)c1 [Compound 162]	–	–	71 nM	–
Cc1ccc(OCc2ccc(C(=O)NC3CCCCC3)cc2C)c(-c2csc(N3CCC(C(=O)O)CC3)n2)c1 [Compound 163]	–	–	750 nM	–
Cc1ccc(OCc2ccc(C(=O)N(C)C3CCCCC3)cc2C)c(-c2csc(N3CCC(C(=O)O)CC3)n2)c1 [Compound 164]	–	–	55 nM	–
Cc1cc(CN2CCCCC2)ccc1COc1ccc(C#N)cc1-c1csc(N2CCC(C(=O)O)CC2)n1 [Compound 169]	> 0.057 mg/mL	> 0.057 mg/mL	–	–
Cc1cc(CN2CCC(O)CC2)ccc1COc1ccc(C#N)cc1-c1csc(N2CCC(C(=O)O)CC2)n1 [Compound 170]	0.024 mg/mL (≈ 43.9 µM)	0.037 mg/mL (≈ 67.7 µM)	–	–

SMILES	solubility [1, 3]	solubility [1, 4]	EC50 [2]	other results
Cc1ccc(OCc2ccc(CN3CCC(O)CC3)cc2C)c(-c2csc(N3CCC(C(=O)O)CC3)n2)c1 [Compound 175]	> 0.055 mg/mL	> 0.055 mg/mL	–	–
Cc1ccc(OCc2ccc(CN3CCOCC3)cc2C)c(-c2csc(N3CC[C@H](C(=O)O)[C@H](C)C3)n2)c1 [Compound 176]	–	–	160 nM	–
Cc1ccc(OCc2ccc(CN3CCOCC3)cc2C)c(-c2csc(N3CCC(C(=O)O)CC3C)n2)c1 (stereo not shown) [Compound 177]	–	–	170 nM	–
COCCN(C)C(=O)c1ccc(COc2ccc(C)cc2-c2csc(N3CCC(C(=O)O)CC3)n2)c(C#N)c1 [Compound 178]	–	–	270 nM	–
Cc1cc(C(=O)N2CCCCC2)ccc1COc1ccc(Cl)cc1-c1csc(C2CCC(C(=O)O)CC2)n1 (stereo not shown) [Compound 182]	–	–	1600 nM	–
Cc1cc(C(=O)N2CCCCC2)ccc1COc1ccc(C#N)cc1-c1csc([C@H]2CC[C@H](C(=O)O)CC2)n1 [Compound 183]	–	–	4400 nM	–
Cc1cc(C(=O)N2CCCCC2)ccc1COc1ccc(C#N)cc1-c1csc(C2=CCC(C(=O)O)CC2)n1 (stereo not shown) [Compound 184]	–	–	1800 nM	–
Cc1cc(CN2CCOCC2)ccc1COc1ccccc1-c1csc(N2CCC(C(=O)O)C(C(F)(F)F)C2)n1 (stereo not shown) [Compound 185]	–	–	2700 nM	–
Cc1cc(CN2CCOCC2)ccc1COc1ccc(Cl)cc1-c1csc(N2CC3C(C2)C3C(=O)O)n1 (stereo not shown) [Compound 187]	–	–	390 nM	–
Cc1cc(CN2CCOCC2)ccc1COc1ccc(Cl)cc1-c1csc(C2=CCC(C(=O)O)CC2)n1 (stereo not shown) [Compound 188]	–	–	830 nM	–
Cc1cc(CN2CCOCC2)ccc1COc1ccc(C#N)cc1-c1csc(C2=CCC(C(=O)O)CC2)n1 (stereo not shown) [Compound 189]	–	–	9000 nM	–
Cc1cc(CN2CCOCC2)ccc1COc1ccc(F)cc1-c1csc(C2CCC(C(=O)O)CC2)n1 (stereo not shown) [Compound 190]	–	–	2500 nM	–
Cc1cc(CN2CCOCC2)ccc1COc1ccc(F)cc1-c1csc(C2=CCC(C(=O)O)CC2)n1 (stereo not shown) [Compound 191]	–	–	530 nM	–
Cc1cc(CN2CCOCC2)ccc1COc1ccccc1-c1csc(C2=CCC(C(=O)O)CC2)n1 (stereo not shown) [Compound 193]	–	–	2400 nM	–
CCC(=O)N1CCN(Cc2ccc(COc3ccc(C)cc3-c3csc(N4CCC(C(=O)O)CC4)n3)c(C)c2)CC1 [Compound 194]	–	–	150 nM	–
Cc1ccc(OCc2ccc(CN3CCN(C(=O)C(C)(C)C)CC3)cc2C)c(-c2csc(N3CCC(C(=O)O)CC3)n2)c1 [Compound 195]	–	–	83 nM	–
Cc1ccc(OCc2ccc(CN3CCOCC3)cc2C)c(-c2csc(N3CCC(C(=O)O)C(C(F)(F)F)C3)n2)c1 (stereo not shown) [Compound 213]	0.041 mg/mL (≈ 69.5 µM)	0.032 mg/mL (≈ 54.3 µM)	–	–
Cc1ccc(OCc2ccc(C(=O)N(C)C)cc2C)c(-c2csc(N3CCC(C(=O)O)CC3)n2)c1 [Compound 294]	–	–	290 nM	–
CCc1cc(C(=O)N2CCN(C)C(=O)C2)ccc1COc1ccc(C)cc1-c1csc(N2C[C@H]3CC[C@@H](C2)[C@H]3C(=O)O)n1 [Compound 295]	–	0.00045 mg/mL (≈ 0.747 µM)	–	solubility ([1]; pH 6.8, aqueous buffer, Solubility (pH 6.8), pH 6.8): 0.06 mg/mL (≈ 99.5 µM)
